These results are taken from patent US20260297542A1, “HERBICIDE RESISTANT PLANTS” (SYNGENTA CROP PROTECTION AG, priority 2023, published 2026).

The target in experiment [1] is T1, AtPPO1 S305L V365M (SEQ ID NO.128) (Arabidopsis thaliana, UniProt P55826, S305L/V365M).
T1 construct: made in house; host or cells: E. coli BL21 (DE3) hemG, crude extract
T1 sequence (P55826 35-537 S305L/V365M): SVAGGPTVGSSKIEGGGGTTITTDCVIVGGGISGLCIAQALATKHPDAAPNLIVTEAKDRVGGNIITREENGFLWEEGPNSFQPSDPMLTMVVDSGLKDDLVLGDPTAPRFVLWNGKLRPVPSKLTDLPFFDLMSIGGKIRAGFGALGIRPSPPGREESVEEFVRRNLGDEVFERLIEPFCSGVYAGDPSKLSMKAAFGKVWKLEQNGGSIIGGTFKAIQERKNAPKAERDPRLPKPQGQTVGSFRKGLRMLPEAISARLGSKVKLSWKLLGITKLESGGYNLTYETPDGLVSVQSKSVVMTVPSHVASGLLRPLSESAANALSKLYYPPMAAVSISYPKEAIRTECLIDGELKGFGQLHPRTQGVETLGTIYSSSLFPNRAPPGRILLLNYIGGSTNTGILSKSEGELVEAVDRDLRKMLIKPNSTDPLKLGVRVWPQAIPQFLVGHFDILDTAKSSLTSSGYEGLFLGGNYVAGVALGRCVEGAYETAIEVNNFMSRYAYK
Put plainly: fluorescent Protoporphyrinogen Oxidase assay, crude extract. It counts as biochemical. As to conditions: read-out: percentage inhibition. Here is the method:
(§1) A pET24 plasmid containing a DNA sequence encoding each identified variant mutant of AtPPO1 derived from Arabidopsis thaliana, codon-optimised for expression in E. coli, and under control of a T7 promoter, was synthesised by Twist Bioscience. This plasmid was expressed in E. coli BL21 (DE3) hemG with 50 μg/mL kanamycin and 25 μg/mL chloramphenicol selection. Overnight cultures grown at 37° C. were used to inoculate 150 ml AIM (AIM-Terrific Broth Base including Trace elements, Formedium) in 500 ml shake flasks at a ratio of 1:100. Cultures were grown at 37° C., 200 rpm for 3 hours and then overnight at 26° C. Cells were harvested by 4° C. centrifugation for 20 minutes at 600 rpm. Cells were stored at −80° C. until extraction. 0.5-1 g of cell pellet from was thawed and resuspended in ratio of 1:1 in lysis buffer (20 mM Tris pH8, 500 mM sodium chloride, 10% glycerol, 1× complete Protease EDTA-free Inhibitor Tablet (Roche)). The resuspension was sonicated at 50% using 10-20 cycles of 10 seconds, 20 seconds off. After sonication Triton X-100 was added to the lysates at a final concentration of 0.5%. The lysates were centrifuged at 13.00 rpm for 10 min at 4° C. The crude extracts (i.e, supernatants) were stored at −80° C. Protein concentration was measured and calculated using the absorbance at 280 nm. Extracts were diluted 1 in 4 and 10 uL was analysed by SDS PAGE.
(§2) Variant crude extracts were assayed in a fluorescent Protoporphyrinogen Oxidase assay in black 384 well plates with a clear bottom. The total volume of the reaction mixture was 100 ul and contained 100 mM K2HPO4 pH7.2, 1 mM Na2EDTA, 5 mM DTT, 20% glycerol (v/v), 0.025% Tween 20 (v/v). Reactions were started with addition of 1 uM protoporphyrinogen IX final assay concentration. Fluorescence was monitored over 30 min using a Tecan plate reader with an excitation wavelength of 405 nm, emission wavelength of 635 nm, gain of 90 and 15 flashes. 10 ul of 3-fold serial dilution of crude extract in 100 mM K2HPO4 pH7.2, 1 mM Na2EDTA, 5 mM DTT, 20% glycerol (v/v), 0.05% Tween 20 (v/v) was tested in the assay against 1% DMSO and 100 ppm herbicide B to determine the correct amount of crude extract to add to the assay to observe activity. 10 ul of the appropriate crude extract dilution was then tested in the fluorescent Protoporphyrinogen Oxidase assay against DMSO and 10-fold dose response of each compound (herbicides A to E) with a top rate of 100 ppm.
(§3) The percentage inhibition was calculated as the activity in the presence of one of four concentrations of each herbicide compound A to E (note that the compounds labelled as A to E are identified hereinabove in the relevant section of the description) as a percentage of the enzyme activity in DMSO (Table 5).

In experiment [2] the target is T2, AtPPO1 S305L L361D V365M (SEQ ID NO.133) (Arabidopsis thaliana, UniProt P55826, S305L/V365M/Y361D).
T2 sequence (P55826 35-537 S305L/Y361D/V365M): T1 sequence (P55826 35-537 S305L/V365M) with Y327D
The experiment is described as above. The format is biochemical. Conditions: read-out: percentage inhibition. Here is the method:
as §1, §2, §3

Substitutions are numbered along the chain they refer to.

One may read the inhibition as the change of the read-out against control, counted positive when it falls. Take `C#CCN1C(=O)C(F)(F)Oc2cc(F)c(-n3c(=O)n(C)c(=S)n(C)c3=O)cc21` [Herbicide B, trifludimoxazin]: in experiment [1], the inhibition at 0.1 ppm is 100%, the inhibition at 1 ppm is 97%, the inhibition at 10 ppm is 95% and the inhibition at 100 ppm came out at 100%. Also, in experiment [2], the inhibition at 0.1 ppm is 96%, the inhibition at 1 ppm is 100%, the inhibition at 10 ppm came out at 100% and the inhibition at 100 ppm was determined as 100%.
As to `CCOC(=O)C1(C)CC(c2cc(-n3c(=O)cc(C(F)(F)F)n(C)c3=O)c(F)cc2Cl)=NO1` (stereo not shown) [Herbicide C, 3-(2-chloro-4-fluoro-5-(3-methyl-2,6-dioxo-4-trifluoromethyl-3,6-dihydropyrimidin-1(2H)-yl)phenyl)-5-methyl-4,5-dihydroisoxazole-5-carboxylic acid ethyl ester], in experiment [1], the inhibition at 0.1 ppm is 45%, the inhibition at 1 ppm amounted to 76%, the inhibition at 10 ppm was found to be 95% and the inhibition at 100 ppm worked out at 100%. Moreover, in experiment [2], the inhibition at 0.1 ppm worked out at 30%, the inhibition at 1 ppm amounted to 56%, the inhibition at 10 ppm amounted to 92% and the inhibition at 100 ppm was found to be 100%.
With `CCOC(=O)COc1ncccc1Oc1cc(-n2c(=O)cc(C(F)(F)F)n(C)c2=O)c(F)cc1Cl` [Herbicide A, epyrifenacil], in experiment [1], the inhibition at 0.1 ppm was found to be 41%, the inhibition at 1 ppm is 64%, the inhibition at 10 ppm came to 92% and the inhibition at 100 ppm is 91%. Also, in experiment [2], the inhibition at 0.1 ppm was determined as 9%, the inhibition at 1 ppm amounted to 53%, the inhibition at 10 ppm came to 84% and the inhibition at 100 ppm was found to be 100%.
As to `CCOC(=O)[C@]1(C)CC(c2cc(-n3c(=O)n(C)c(=S)n(C)c3=O)c(F)cc2Cl)=NO1` [Herbicide D, ethyl (5S)-3-[2-chloro-5-(3,5-dimethyl-2,6-dioxo-4-thioxo-1,3,5-triazinan-1-yl)-4-fluoro-phenyl]-5-methyl-4H-isoxazole-5-carboxylate], in experiment [1], the inhibition at 0.1 ppm worked out at 51%, the inhibition at 1 ppm was 84%, the inhibition at 10 ppm turned out to be 96% and the inhibition at 100 ppm amounted to 100%. For the same compound, in experiment [2], the inhibition at 0.1 ppm stood at 37%, the inhibition at 1 ppm worked out at 87%, the inhibition at 10 ppm amounted to 99% and the inhibition at 100 ppm is 100%.
With `CC(C)N(C)S(=O)(=O)NC(=O)c1cc(-n2c(=O)cc(C(F)(F)F)n(C)c2=O)c(F)cc1Cl` [Herbicide E, saflufenacil], in experiment [1], the inhibition at 0.1 ppm stood at 0%, the inhibition at 1 ppm amounted to 71%, the inhibition at 10 ppm came to 91% and the inhibition at 100 ppm is 100%. In experiment [2], the inhibition at 0.1 ppm is 0%, the inhibition at 1 ppm came out at 10%, the inhibition at 10 ppm came to 76% and the inhibition at 100 ppm was 88%.
